Measured values reported in ChEMBL document CHEMBL3244423, “Cardioselectivity as a function of molecular structure in beta-adrenoceptor blocking agents of the 1-(para-substituted aryloxy)-3-(isopropylamino)propan-2-ol type” (J Med Chem, 1978).
The source made the active and inactive calls. The rule behind the calls is not given here.

Key:
[1] = molecular target: Beta-1 adrenergic receptor (Rattus norvegicus, UniProt P18090); assay: Antagonist activity at beta1 adrenergic receptor in isolated rat atria; conditions: read-out: pA2 (converted)
[2] = molecular target: Beta-2 adrenergic receptor (Rattus norvegicus, UniProt P10608); assay: Antagonist activity at beta2 adrenergic receptor in isolated rat stomach fundus; conditions: read-out: pA2 (converted)
[3] = Selectivity ratio of beta1 adrenergic receptor in isolated rat atria to beta2 adrenergic receptor in isolated rat stomach fundus
Felis catus [4] = assay: In vivo antagonist activity at beta1 adrenergic receptor in cat assessed as myocardial activity; format: functional, organism-based; conditions: Myocardium, read-out: pA2 (converted)
Felis catus [5] = assay: In vivo antagonist activity at beta2 adrenergic receptor in cat assessed as vascular activity; format: organism-based; conditions: read-out: pA2 (converted)
Felis catus [6] = organism: Felis catus; assay: Selectivity ratio of antagonist activity at beta1 adrenergic receptor in cat to antagonist activity at beta2 adrenergic receptor in cat
[7] = molecular target: Beta-1 adrenergic receptor (Rattus norvegicus) (UniProt P18090); assay: Agonist activity at beta1 adrenergic receptor in isolated rat atria in presence of propranolol
[8] = molecular target: Beta-2 adrenergic receptor (Rattus norvegicus) (UniProt P10608); assay: Agonist activity at beta2 adrenergic receptor in isolated rat stomach fundus in presence of propranolol
Chain of Beta-2 adrenergic receptor (Rattus norvegicus) (P10608 whole entry, looked up): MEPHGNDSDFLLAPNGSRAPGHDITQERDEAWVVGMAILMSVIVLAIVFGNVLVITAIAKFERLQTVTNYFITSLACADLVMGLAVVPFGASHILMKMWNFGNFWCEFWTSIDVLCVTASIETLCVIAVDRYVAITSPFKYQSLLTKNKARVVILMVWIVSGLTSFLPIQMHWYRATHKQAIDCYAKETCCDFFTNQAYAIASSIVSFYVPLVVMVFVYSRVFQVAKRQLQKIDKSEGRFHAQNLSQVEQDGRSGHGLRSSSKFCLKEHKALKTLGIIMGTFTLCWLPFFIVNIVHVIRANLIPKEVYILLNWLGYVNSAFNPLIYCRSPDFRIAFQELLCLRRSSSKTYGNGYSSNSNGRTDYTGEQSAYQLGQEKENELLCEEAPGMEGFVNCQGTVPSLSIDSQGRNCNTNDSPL

Chain of Beta-1 adrenergic receptor (P18090 whole entry): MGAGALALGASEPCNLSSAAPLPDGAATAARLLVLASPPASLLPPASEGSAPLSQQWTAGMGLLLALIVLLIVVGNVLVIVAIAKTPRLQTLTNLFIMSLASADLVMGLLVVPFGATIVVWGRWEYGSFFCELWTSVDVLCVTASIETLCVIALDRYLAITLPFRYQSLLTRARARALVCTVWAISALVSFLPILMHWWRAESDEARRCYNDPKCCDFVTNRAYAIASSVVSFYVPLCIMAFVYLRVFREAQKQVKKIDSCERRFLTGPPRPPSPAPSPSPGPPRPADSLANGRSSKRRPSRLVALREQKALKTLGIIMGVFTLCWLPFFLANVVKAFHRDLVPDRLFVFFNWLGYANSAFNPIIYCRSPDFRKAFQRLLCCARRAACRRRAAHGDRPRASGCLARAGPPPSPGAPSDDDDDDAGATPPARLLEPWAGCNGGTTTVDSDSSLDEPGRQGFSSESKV
Chain of Beta-2 adrenergic receptor (P10608 whole entry): as the sequence (P10608 whole entry, looked up) above
Chain of Beta-1 adrenergic receptor (Rattus norvegicus) (P18090 whole entry, looked up): as the sequence (P18090 whole entry) above

Structure (SMILES)	Kb [1] [µM]	Kb [2] [µM]	Selectivity ratio [3]	Kb (Felis catus [4]) [µM]	Kb (Felis catus [5]) [µM]	Selectivity ratio (Felis catus [6])	Activity [7]	Activity [8]
CCc1ccc(OCC(O)CNC(C)C)cc1 (racemic)	0.0631	0.0316	0.5	–	–	–	–	–
CNC(=O)c1ccc(OCC(O)CNC(C)C)cc1 (racemic)	3.63	1000	275	–	–	–	–	–
CC(C)NCC(O)COc1ccc(C(N)=O)cc1 (racemic)	10	15.8	1.6	–	–	–	–	–
CC(C)NCC(O)COc1ccc2c(c1)CCCNC2=O (racemic)	135	81.3	0.6	–	–	–	–	–
CC(C)NCC(O)COc1ccc2c(c1)OCCNC2=O (racemic)	18.2	45.7	2.5	–	–	–	–	–
CC(C)NCC(O)COc1ccc2c(c1)CCCC(=O)N2 (racemic)	–	–	–	10	10	1	–	–
CC(C)NCC(O)COc1ccc2c(c1)OCC(=O)N2 (racemic)	–	–	–	2.51	3.16	1.3	–	–
CCCc1ccc(OCC(O)CNC(C)C)cc1.Cl (racemic)	0.0251	0.158	6.5	–	–	–	–	–
C/C=C/c1ccc(OCC(O)CNC(C)C)c(OC)c1 (racemic)	0.0501	1.26	25	–	–	–	–	–
C/C=C\c1ccc(OCC(O)CNC(C)C)c(OC)c1 (racemic)	0.2	0.02	0.1	–	–	–	–	–
CC(C)NCC(O)COc1ccc(CC2(C)OCCO2)cc1 (racemic)	> 316	> 316	–	–	–	–	inactive	inactive
CC(=O)Nc1ccc(OCC(O)CNC(C)C)cc1 (stereo not given) [PRACTOLOL]	0.339	–	–	–	–	–	–	–
